Reference: PMC12430278, “A Simple and Reliable Method for the Determination of Isorhapontigenin in Murine Biological Matrices: Application in a Tissue Distribution Study” (Molecules, 2025)
Read-outs that look alike come from different tables or passages of the source.

Tests used:
[1] = Stability of stock solutions; assay type: physicochemical; conditions: DMSO stock solution, stock solution 1.00 mg/mL, n = 6, read-out: Remaining (%, Mean ± SD)
Protocol: Stock solutions of ISO and trans-stilbene (internal standard, IS) were prepared in DMSO at a final concentration of 1 mg/mL. These solutions were stored at −20 °C and protected from light. The calibration standard and quality control (QC) samples were prepared by serial dilution of the ISO stock solution with pooled blank murine plasma or respective tissue homogenate.
(§1) The stability of ISO was evaluated under various storage conditions. Stock solution stability was assessed after storage at room temperature (25 °C) and –20 °C. The stability of ISO in plasma was examined under the following conditions: short-term storage (25 °C for 24 h), long-term storage (–80 °C for 52 days), three freeze–thaw cycles, and post-preparative stability (samples kept in an autosampler at 4 °C for more than 24 h). As it is difficult to evaluate ISO stability directly in tissues, only the short-term stability in tissue homogenates was assessed (6 h on ice). Similarly, post-preparative stability in processed tissue samples was assessed using liver homogenate as a representative, due to the complexity of the hepatic matrix. Stability was considered acceptable if 85–115% of the initial ISO concentration remained.

[2] = test system: primary airway epithelial cells isolated from patients with chronic obstructive pulmonary disease (COPD); parameters: method as in PMID 28369685; conditions: RES as comparator; cited from earlier work
[3] = cited from earlier work
[4] = Stability of ISO in tissue homogenates; assay type: in vitro ADME; conditions: mouse; for remaining at 6 h, 45 ng/mL / remaining at 6 h, 1600 ng/mL: read-out: Stability Remaining (%, Mean ± SD) Short-Term Stability (6 h on Ice)
Text: In bioanalysis, analyte stability in biological matrices is crucial for ensuring accurate and reliable quantification. Instability can result in degradation or transformation during sample collection, storage, or processing, potentially compromising data integrity and study outcomes. Therefore, the stability of ISO in plasma was thoroughly evaluated under various storage conditions (Table 5). Assessing ISO stability in intact tissues is challenging, as replicating the native tissue environment is difficult. Accordingly, only short-term stability (6 h on ice) was assessed in tissue homogenates (Table 6). For post-preparative stability, hepatic homogenate—the most complex matrix—was selected as a representative.
For tissue samples, namely brain, fat, heart, small intestine, large intestine, kidney, liver, lung, muscle, spleen, and stomach, approximately 35 mg of each tissue was weighed and finely minced with scissors. The samples were homogenized in a 0.2% ascorbic acid solution (freshly prepared daily) in 50% methanol (v/v) at a ratio of 1:5 (w/v) for up to three cycles using a high-throughput tissue homogenizer (Wonbio-L, Wonbio, Shanghai, China) operating at 60 Hz for 60 s per cycle. Subsequently, three volumes of acetonitrile (containing IS at 400 ng/mL) were added to one volume of tissue homogenate. Following vigorous vortexing, the samples were centrifuged at 1902× g for 10 min at 15 °C. The clear supernatant was carefully transferred into an HPLC vial.
as §1

[5] = Biodistribution study in mice following oral administration; assay type: in vivo, C57BL/6 mice
Protocol: Following oral administration of ISO at a dose of 200 µmol/kg (equivalent to 51.7 mg/kg), three to four mice (n = 3 or 4) were euthanized at each predetermined time point (5, 10, 20, 40, 60, and 80 min), and biological samples were collected. ISO concentrations were quantified using our validated HPLC-UV method. Exposure levels (AUC) in plasma and other individual biological matrices were calculated based on the mean concentrations at each time point.
Specific pathogen-free C57BL/6 mice (male; 6–8 weeks old; weight: 18–21 g) were purchased through Shenzhen Glorybay Biotech Co. (Shenzhen, China). The animals had ad libitum access to food and water prior to dosing. ISO was administered as an aqueous suspension (vehicle: 0.3% sodium carboxymethylcellulose with 0.2% L-ascorbic acid; ISO concentration: 5 mg/mL) via oral gavage at a dose of 200 µmol/kg (equivalent to 51.7 mg/kg, dosing volume: 10.34 mL/kg). At each predetermined time point (5, 10, 20, 40, 60 and 80 min) three to four mice (n = 3 or 4) were euthanized through cervical dislocation. Blood samples were collected into heparinized centrifuge tubes and centrifuged to obtain plasma. Following blood collection, the mice were dissected, and major organs/tissues—including the brain, abdominal fat, heart, small intestine, large intestine, kidney, liver, lung, abdominal muscle, spleen, and stomach—were harvested. The organs and tissues were cut into small pieces and rinsed with isotonic saline before being blotted dry. All collected biological samples were placed on dry ice. At the end of the in vivo study, all samples were stored at –80 °C in a deep freezer until HPLC analysis.
Non-compartmental pharmacokinetic analysis was performed using WinNonlin Standard Version 1.0 (Scientific Consulting Inc., Apex, NC, USA). Plasma and tissue exposure, expressed as the area under the concentration–time curve (AUC), was calculated using the mean values of the individual mice.

[6] = enzymatic-hydrolysis approach; cited from earlier work
[7] = parameters: method as in PMID 39456808; conditions: Sprague Dawley rats, two weeks daily oral 100 µmol/kg/day; cited from earlier work

For `COc1cc(/C=C/c2cc(O)cc(O)c2)ccc1O` [ISO, trans-3,5,4′-trihydroxy-3′-methoxystilbene], the remaining at 24 h, 1 mg/mL ([1]; stored at room temperature for 24 h) is listed as 94.6 ± 0.7%, the remaining at 480 h, 1 mg/mL ([1]; stored at −20 °C for 20 days) is listed as 105 ± 1.4% and the “Anti-COPD activity compared with RES” value [2] is listed as “stronger anti-COPD activity than RES”. For the same compound, the “Change in oral bioavailability after one-week repeated dosing” value ([3]; one-week repeated dosing) was “did not result in any significant changes”, the Absolute oral bioavailability ([3]; rats, oral) was 20–30% and the “Time of peak plasma concentrations post-dosing” value ([3]; rats, oral) was ≤ 15 min. For the same compound, the remaining at 6 h, 45 ng/mL ([4]; brain homogenate, 45.0 ng/mL) was 101 ± 2.1%, the remaining at 6 h, 1600 ng/mL ([4]; brain homogenate, 1600 ng/mL) was 95.9 ± 1.7% and the remaining at 6 h, 45 ng/mL ([4]; fat homogenate, 45.0 ng/mL) was 101 ± 4.4%. The remaining at 6 h, 1600 ng/mL ([4]; fat homogenate, 1600 ng/mL) was 96.8 ± 2.5%, the remaining at 6 h, 45 ng/mL ([4]; heart homogenate, 45.0 ng/mL) was 93.8 ± 3.4% and the remaining at 6 h, 1600 ng/mL ([4]; heart homogenate, 1600 ng/mL) was 106 ± 2%. For the same compound, the remaining at 6 h, 45 ng/mL ([4]; kidney homogenate, 45.0 ng/mL) was 96.8 ± 2.6%, the remaining at 6 h, 1600 ng/mL ([4]; kidney homogenate, 1600 ng/mL) was 97.4 ± 2.8% and the remaining at 6 h, 45 ng/mL ([4]; large intestine homogenate, 45.0 ng/mL) was 92.6 ± 2.9%. It also gave a remaining at 6 h, 1600 ng/mL ([4]; large intestine homogenate, 1600 ng/mL) of 90.3 ± 3.6%, a remaining at 24 h, 45 ng/mL ([4]; liver homogenate, 45.0 ng/mL, read-out: Stability Remaining (%, Mean ± SD) Post-Preparative Stability (More Than 24 h at 4 °C)) of 105 ± 2.2% and a remaining at 6 h, 45 ng/mL ([4]; liver homogenate, 45.0 ng/mL) of 103 ± 2.1%. It also gave a remaining at 24 h, 1600 ng/mL ([4]; liver homogenate, 1600 ng/mL, read-out: Stability Remaining (%, Mean ± SD) Post-Preparative Stability (More Than 24 h at 4 °C)) of 94.9 ± 1%, a remaining at 6 h, 1600 ng/mL ([4]; liver homogenate, 1600 ng/mL) of 97.8 ± 1.2% and a remaining at 6 h, 45 ng/mL ([4]; lung homogenate, 45.0 ng/mL) of 97.3 ± 4%. The remaining at 6 h, 1600 ng/mL ([4]; lung homogenate, 1600 ng/mL) was 101 ± 1.7%, the remaining at 6 h, 45 ng/mL ([4]; muscle homogenate, 45.0 ng/mL) was 102 ± 5.5% and the remaining at 6 h, 1600 ng/mL ([4]; muscle homogenate, 1600 ng/mL) was 95 ± 2.5%. It also gave a remaining at 6 h, 45 ng/mL ([4]; small intestine homogenate, 45.0 ng/mL) of 91.8 ± 4.8%, a remaining at 6 h, 1600 ng/mL ([4]; small intestine homogenate, 1600 ng/mL) of 92.9 ± 3.8% and a remaining at 6 h, 45 ng/mL ([4]; spleen homogenate, 45.0 ng/mL) of 92.7 ± 6%. For the same compound, the remaining at 6 h, 1600 ng/mL ([4]; spleen homogenate, 1600 ng/mL) was 94.3 ± 4.3%, the remaining at 6 h, 45 ng/mL ([4]; stomach homogenate, 45.0 ng/mL) was 95 ± 2.9% and the remaining at 6 h, 1600 ng/mL ([4]; stomach homogenate, 1600 ng/mL) was 97.2 ± 2.2%. For the same compound, the “Time at which mean concentrations in plasma and multiple tissues peak” value ([5]; oral suspension, 200 µmol/kg (51.7 mg/kg)) was 10 min, the “Exposure (AUC) ranking across plasma and tissues” value ([5]; oral, 200 µmol/kg (51.7 mg/kg), AUC from mean concentrations, 5-80 min) was “stomach > small intestine > liver > large intestine > plasma > kidney > heart > spleen > lung > muscle” and the “Penetration into brain and fat” value ([5]; oral, 200 µmol/kg, brain and fat samples, quantifiable levels printed as ≥75 ng/mL) was “only a few reached quantifiable levels”. The “Detectability of ISO in the kidney, liver, and heart over time” value ([5]; oral, 200 µmol/kg, kidney, liver, heart) was “undetectable in some mice as early as 20 min”, the “Detectability of ISO in the lung and muscle over time” value ([5]; oral, 200 µmol/kg, lung, muscle) was “detectable in the lung and muscle mainly between 10 and 20 min” and the “Quantifiability of ISO in plasma over time” value ([5]; oral, 200 µmol/kg, plasma) was “unquantifiable in one out of four mice by 40 min”. The Glucuronidation [6] was “extensive glucuronidation”, the Sulfation [6] was “not detected” and the Blood cholesterol levels [7] was “healthier blood cholesterol levels”. For the same compound, the Body weight gain [7] was “less body weight gain” and the Toxicity [7] was “no significant toxicity was observed”.
